From ChEMBL document CHEMBL1131292, “Synthesis and pharmacology of a new AMPA-kainate receptor agonist with potent convulsant activity” (J Med Chem, 1998)

What was measured:
[1] = target: Glutamate receptor ionotropic, kainate; assay: Compound was evaluated for binding affinity at Ionotropic glutamate receptor kainate using [3H]- KAIN as radioligand; format: protein-complex assay
Mus musculus [2] = assay: In Vivo evaluation of the Compound administered through icv for the Clonic seizure presence along with […] in mice. (+/-95% confidence limits within parenthesis); nM per mouse; format: functional
Mus musculus [3] = assay: In Vivo evaluation of the Compound administered through icv for the tonicity in presence alone in mice.; format: functional
Mus musculus [4] = assay: In Vivo evaluation of the Compound administered through icv for the Clonic seizure presence alone in mice.; format: functional
Mus musculus [5] = assay: In Vivo evaluation of the Compound administered through icv for the Clonic seizure presence along with the antagonist GYKI 52466 in mice.; format: functional
Glutamate NMDA receptor = assay: Compound was evaluated for binding affinity at N-methyl-D-aspartate glutamate receptor using [3H]CPP as radioligand; format: protein-complex assay
[6] = Potency ratio (the ratio between the CD50 value of the drug in the presence of antagonist versus its CD50 value) for compound in presence of CPP; range 2.9-3.4; format: functional
[7] = Potency ratio (the ratio between the CD50 value of the drug in the presence of antagonist versus its CD50 value) for compound in presence of GYKI 52466; range 1.4-2.1; format: functional
[8] = Potency ratio (the ratio between the CD50 value of the drug in the presence of antagonist versus its CD50 value) for compound in presence of CPP compound in presence of NBQX; range 1.1-1.3; format: functional
[9] = target: Glutamate receptor ionotropic, AMPA (Rattus norvegicus, UniProt P19490+P19491+P19492+P19493)
Description: Compound was evaluated for binding affinity at Ionotropic glutamate receptor AMPA using [3H]AMPA as radioligand

Mus musculus [10] = assay: In Vivo evaluation of the Compound administered through icv for tonicity in presence along with […] in mice.; format: functional
Mus musculus [11] = assay: In Vivo evaluation of the Compound administered through icv for tonicity in presence along with the antagonist NBQX in mice.; format: functional
Mus musculus [12] = assay: In Vivo evaluation of the Compound administered through icv for the Clonic seizure presence along with the antagonist NBQX in mice.; format: functional
Mus musculus [13] = assay: In Vivo evaluation of the Compound administered through icv for the Clonic seizure presence along with […] in mice.; format: functional
Mus musculus [14] = assay: In Vivo evaluation of the Compound administered through icv for the Clonic seizure presence along with the antagonist GYKI 52466 in mice; format: functional
Mus musculus [15] = assay: In Vivo evaluation of the Compound administered through icv for the tonicity in presence along with the antagonist GYKI 52466 in mice.; format: functional
Mus musculus [16] = assay: In Vivo evaluation of the Compound administered through icv for tonicity in presence along with the antagonist GYKI 52466 in mice.; format: functional
Mus musculus [17] = assay: In Vivo evaluation of the Compound administered through icv for tonicity in presence of the compound along with the antagonist NBQX in mice.; format: functional
Mus musculus [18] = assay: In Vivo evaluation of the Compound administered through icv for the Clonic seizure presence of the compound along with the antagonist NBQX in mice.; format: functional
Mus musculus [19] = assay: In Vivo evaluation of the Compound administered through icv for tonicity in presence alone in mice.; format: functional
Mus musculus [20] = assay: In Vivo evaluation of the Compound administered through icv for the Clonic seizure presence of the compound along with the antagonist NBQX in mice; format: functional
Mus musculus [21] = assay: In Vivo evaluation of the Compound administered through icv for the for tonicity in presence along with the antagonist GYKI 52466 in mice; format: functional
Mus musculus [22] = assay: In Vivo evaluation of the Compound administered through icv for the for tonicity in presence along with […] in mice; format: functional
Mus musculus [23] = assay: In Vivo evaluation of the Compound administered through icv for the for tonicity in presence of the compound along with the antagonist NBQX in mice; format: functional
Mus musculus [24] = assay: In Vivo evaluation of the Compound administered through icv for tonicity in presence alone in mice; format: functional

SMILES	IC50 [1]	CD50 (Mus musculus [4])	CD50 (Mus musculus [5])	IC50 (Glutamate NMDA receptor)	IC50 [9]	CD50 (Mus musculus [10])	CD50 (Mus musculus [13])	also measured
O=C(O)C1=NO[C@H]2[C@@H]1CN[C@@H]2C(=O)O	48 µM	8.48 nmol/mouse	17.5 nmol/mouse	23 µM	24.7 µM			CD50 (Mus musculus [2]): 24.82 nM; CD50 (Mus musculus [3]): 39.9 nM; Ratio [6]: 2.9; Ratio [7]: 1.4; Ratio [8]: 1.1
O=C(O)C1=NO[C@H]2CN[C@H](C(=O)O)[C@@H]12	0.48 µM	0.027 nmol/mouse		> 100 µM	1.3 µM	0.19 nmol	0.039 nmol/mouse	CD50 (Mus musculus [11]): 0.99 nM; CD50 (Mus musculus [12]): 0.43 nM; CD50 (Mus musculus [14]): 0.5 nM; CD50 (Mus musculus [15]): 1.26 nM
C=C(C)[C@H]1CN[C@H](C(=O)O)[C@H]1CC(=O)O [KAINIC ACID]		0.015 nmol/mouse	0.071 nmol/mouse	> 100 µM		0.071 nmol/mouse	0.024 nmol/mouse	CD50 (Mus musculus [16]): 0.232 nmol/mouse; CD50 (Mus musculus [17]): 0.468 nmol/mouse; CD50 (Mus musculus [18]): 0.094 nmol; CD50 (Mus musculus [19]): 0.032 nmol/mouse
Cc1onc(O)c1C[C@H](N)C(=O)O [(S)-AMPA]		1.76 nmol/mouse	7.61 nmol/mouse				2.69 nmol/mouse	CD50 (Mus musculus [20]): 6.7 nmol/mouse; CD50 (Mus musculus [21]): 16.1 nmol; CD50 (Mus musculus [22]): 3.18 nM; CD50 (Mus musculus [23]): 15.7 nmol; CD50 (Mus musculus [24]): 2.9 nmol
